{"source": "patent US10155768B2", "about": "“Fused pyrimidine compound or salt thereof” (TAIHO PHARMACEUTICAL CO., LTD., priority 2016, dated 2018)", "data": [{"assay": "Evaluation of stability in liver microsome", "conditions": "mouse liver microsome 0.25 mg/mL, 1 μM test compound, 37° C. for 30 minutes", "units": {"Remaining (%)": "%"}, "procedure": "Solutions of the test compounds in DMSO/acetonitrile (the final concentration of each test compound was 1 μM, the final concentration of DMSO was 0.01%, and the final concentration of acetonitrile was 1%) were individually added to a liver microsome mixture solution (mouse liver microsome with a final concentration of 0.25 mg/mL, a potassium phosphate buffer with a final concentration of 100 mM, and magnesium chloride with a final concentration of 3 mM), and each mixture was pre-incubated at 37° C. for 5 minutes. […] After incubation at 37° C. for 30 minutes, a double amount of ethanol was added thereto to terminate the reaction, thereby obtaining post-reaction samples. A double amount of ethanol was added to each of the remaining mixture solutions, and a NADPH-generating system was further added thereto, thereby obtaining pre-reaction samples. The pre-reaction samples and post-reaction samples were centrifuged at 2000×g, and their supernatant was filtered through a glass filter. Each filtrate was then introduced into LC-MS/MS, and MS/MS peaks of the test compounds were detected. From the ratio of the post-reaction MS/MS peak to the pre-reaction MS/MS peak of the test compounds, the percentage of the remaining test compounds (remaining %) was calculated.", "values": [{"smiles": "COCc1ccc(NC(=O)c2c(OC[C@@H]3CCCO3)n(C3(C)CC3)c3ncnc(N)c23)cc1", "note": "[Example 97, (S)-4-amino-N-(4-(methoxymethyl)phenyl)-7-(1-methylcyclopropyl)-6-((tetrahydrofuran-2-yl)methoxy)-7H-pyrrolo[2,3-d] pyrimidine-5-carboxamide]", "Remaining (%)": 70}, {"smiles": "COCc1ccc(NC(=O)c2c(OCC(C)C)n(C3(C)CC3)c3ncnc(N)c23)cc1", "note": "[Example 99, 4-amino-6-isobutoxy-N-(4-(methoxymethyl)phenyl)-7-(1-methylcyclopropyl)-7H-pyrrolo[2,3-d]pyrimidine-5-carboxamide]", "Remaining (%)": 51}, {"smiles": "COCc1ccc(NC(=O)c2c(OCC(C)OC)n(C3(C)CC3)c3ncnc(N)c23)cc1", "note": "(stereo not drawn) [Example 100, 4-amino-N-(4(methoxymethyl)phenyl)-6-(2-methoxypropoxy)-7-(1-methylcyclopropyl)-7H-pyrrolo[2,3-d]pyrimidine-5-carboxamide]", "Remaining (%)": 76}, {"smiles": "COCc1ccc(NC(=O)c2c(OCC3CCOC3)n(C3(C)CC3)c3ncnc(N)c23)cc1", "note": "(stereo not drawn) [Example 101, 4-amino-N-(4-(methoxymethyl)phenyl)-7-(1methylcyclopropyl)-6-((tetrahydrofuran-3-yl)methoxy)-7H-pyrrolo[2,3-d]pyrimidine-5-carboxamide]", "Remaining (%)": 68}, {"smiles": "COCc1ccc(NC(=O)c2c(OCC3CCCCO3)n(C3(C)CC3)c3ncnc(N)c23)cc1", "note": "(stereo not drawn) [Example 102, 4-amino-N-(4-(methoxymethyl)phenyl)-7-(1-methylcyclopropyl)-6-((tetrahydro-2H-pyran-2-yl)methoxy)-7H-pyrrolo[2,3-d]pyrimidine-5-carboxamide]", "Remaining (%)": 60}, {"smiles": "COCc1ccc(NC(=O)c2c(C#CCC3(O)CCC3)n(C3(C)CC3)c3ncnc(N)c23)cc1", "note": "[Example 103, 4-amino-6-(3-(1-hydroxycyclobutyl)prop-1-yn-1-yl)-N-(4-(methoxymethyl)phenyl)-7-(1-methylcyclopropyl)-7H-pyrrolo[2,3-d]pyrimidine-5-carboxamide]", "Remaining (%)": 60}, {"smiles": "COCc1ccc(NC(=O)c2c(C#CC(O)C3CC3)n(C3(C)CC3)c3ncnc(N)c23)cc1", "note": "(stereo not drawn) [Example 104, 4-amino-6-(3-cyclopropyl-3-hydroxyprop-1-yn-1-yl)-N-(4-(methoxymethyl)phenyl)-7-(1-methylcyclopropyl)-7H-pyrrolo[2,3-d]pyrimidine-5-carboxamide]", "Remaining (%)": 52}, {"smiles": "COCc1ccc(NC(=O)c2c(C#CCN3CCCCC3)n(C3(C)CC3)c3ncnc(N)c23)cc1", "note": "[Example 105, 4-amino-N-[4-(methoxymethyl)phenyl]-7-(1-methylcyclopropyl)-6-(3-(piperidin-1-yl)prop-1-yn-1-yl)-7H-pyrrolo[2,3-d]pyrimidine-5-carboxamide]", "Remaining (%)": 52}, {"smiles": "COCc1ccc(NC(=O)c2c(/C=C/CO)n(C3(C)CC3)c3ncnc(N)c23)cc1", "note": "[Example 109, (E)-4-amino-6-(3-hydroxyprop-1-en-1-yl)-N-(4-(methoxymethyl)phenyl)-7-(1-methylcyclopropyl)-7H-pyrrolo[2,3-d]pyrimidine-5-carboxamide]", "Remaining (%)": 68}, {"smiles": "COCc1ccc(NC(=O)c2c(C#Cc3ccccc3OC)n(C3(C)CC3)c3ncnc(N)c23)cc1", "note": "[Example 113, 4-amino-N-(4-(methoxymethyl)phenyl)-6-((2-methoxyphenyl)ethynyl)-7-(1-methylcyclopropyl)-7H-pyrrolo[2,3-d]pyrimidine-5-carboxamide]", "Remaining (%)": 79}, {"smiles": "CCn1nccc1C#Cc1c(C(=O)Nc2ccc(COC)cc2)c2c(N)ncnc2n1C1(C)CC1", "note": "[Example 114, 4-amino-6-((1-ethyl-1H-pyrazol-5-yl)ethynyl)-N-(4-(methoxymethyl)phenyl)-7-(1-methylcyclopropyl)-7H-pyrrolo[2,3-d]pyrimidine-5-carboxamide]", "Remaining (%)": 55}, {"smiles": "CCOc1c(C(=O)Nc2ccc(-c3ccco3)cc2)c2c(N)ncnc2n1C1(C)CC1", "note": "[Example 116, 4-amino-6-ethoxy-N-(4-(furan-2-yl)phenyl)-7-(1-methylcyclopropyl)-7H-pyrrolo[2,3-d]pyrimidine-5-carboxamide]", "Remaining (%)": 55}]}]}
